Test results from patent publication US9624209B2, “Substituted phenylureas and phenylamides as vanilloid receptor ligands” (Gruenenthal GmbH, priority 2009, dated 2017).

What was measured:
[1] = target: T1, vanilloid receptor 1 (VR1/TRPV1 receptor) (Homo sapiens, UniProt Q8NER1); assay: VR1/TRPV1 receptor affinity, NADA stimulus (human); assay type: cell-based; conditions: N-arachidonoyl dopamine; read-out: Ki (human being) [nM] NADA
T1 construct: expressed in transfected cells; host or cells: CHO K1 cells (ECACC), stably transfected
T1 sequence (Q8NER1 whole entry): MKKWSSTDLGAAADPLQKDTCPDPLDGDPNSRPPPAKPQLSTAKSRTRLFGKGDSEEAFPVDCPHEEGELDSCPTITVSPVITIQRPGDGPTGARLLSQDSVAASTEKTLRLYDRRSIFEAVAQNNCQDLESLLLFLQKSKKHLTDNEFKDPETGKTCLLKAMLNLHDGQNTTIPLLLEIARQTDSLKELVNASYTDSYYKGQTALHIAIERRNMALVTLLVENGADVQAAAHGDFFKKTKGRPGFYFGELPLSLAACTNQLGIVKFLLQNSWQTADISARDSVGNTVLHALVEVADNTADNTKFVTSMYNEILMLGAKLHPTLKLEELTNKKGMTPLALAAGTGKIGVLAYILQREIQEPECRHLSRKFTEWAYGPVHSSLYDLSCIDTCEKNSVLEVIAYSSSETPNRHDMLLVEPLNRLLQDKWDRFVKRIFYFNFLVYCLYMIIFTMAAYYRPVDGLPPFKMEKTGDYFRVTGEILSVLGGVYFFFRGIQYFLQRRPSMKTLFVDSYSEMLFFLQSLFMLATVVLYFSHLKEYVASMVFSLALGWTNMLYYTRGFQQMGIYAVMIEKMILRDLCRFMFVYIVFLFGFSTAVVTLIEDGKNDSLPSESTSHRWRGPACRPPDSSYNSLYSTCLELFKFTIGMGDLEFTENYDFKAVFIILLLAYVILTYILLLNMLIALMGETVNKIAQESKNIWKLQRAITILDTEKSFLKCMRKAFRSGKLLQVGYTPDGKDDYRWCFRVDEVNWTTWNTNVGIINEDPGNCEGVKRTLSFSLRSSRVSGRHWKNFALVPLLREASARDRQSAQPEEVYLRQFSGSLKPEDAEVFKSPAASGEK

[2] = target: T1, vanilloid receptor 1 (VR1/TRPV1 receptor); assay: VR1 inhibition, 45° C. heat stimulus (human); assay type: cell-based, human being; parameters: key to IC50 (human being) [nM], 45° C.: result in words: AG=agonist; pAG=partial agonist; NE=no effect
[3] = target: T1, vanilloid receptor 1 (VR1/TRPV1 receptor); assay: VR1/TRPV1 receptor affinity, capsaicin stimulus (human); assay type: cell-based, human being; conditions: Tables 8-12, read-out: (f) Ki (human being) [nM] Cap

Row | Compound | Ki [3] | further results
1 | CCCCCCn1nc(C(C)(C)C)cc1CNC(=O)C(C)c1ccc(NS(C)(=O)=O)c(F)c1 (centres unmarked) [Example 5, N-((3-tert-butyl-1-hexyl-1H-pyrazol-5-yl)methyl)-2-(3-fluoro-4-(methylsulfonamido)phenyl)propanamide] |  | Ki [1]: 4.99 nM
2 | CC(C(=O)NCc1cc(C(C)(C)C)nn1-c1ccc(F)c(Cl)c1)c1ccc(NS(C)(=O)=O)c(F)c1 (centres unmarked) [Example 18, N-((3-tert-butyl-1-(3-chloro-4-fluorophenyl)-1H-pyrazol-5-yl)methyl)-2-(3-fluoro-4-(methylsulfonamido)phenyl)propanamide] |  | Ki [1]: 0.22 nM
3 | CC(C(=O)NCc1cc(C(C)(C)C)nn1-c1cccc(Cl)c1)c1cc(F)c(NS(C)(=O)=O)c(F)c1 (centres unmarked) [Example 29, N-((3-tert-butyl-1-(3-chlorophenyl)-1H-pyrazol-5-yl)methyl)-2-(3,5-difluoro-4-(methylsulfonamido)phenyl)propanamide] |  | Ki [1]: 0.08 nM
4 | CC(C(=O)NCc1cc(C(C)(C)C)nn1-c1cccc(Cl)c1)c1ccc(S(=O)(=O)N(C)C)c(F)c1 (centres unmarked) [Example 56, N-((3-tert-butyl-1-(3-chlorophenyl)-1H-pyrazol-5-yl)methyl)-2-(4-(N,N-dimethylsulfamoyl)-3-fluorophenyl)propanamide] |  | IC50 (human being) [nM], 45° C.: result in words [2]: AG
5 | Cc1c(C(F)(F)F)nn(-c2cccc(Cl)c2)c1CNC(=O)C(C)c1ccc(CNS(C)(=O)=O)c(F)c1 (centres unmarked) [Example 134, N-((1-(3-chlorophenyl)-4-methyl-3-(trifluoromethyl)-1H-pyrazol-5-yl)methyl)-2-(3-fluoro-4-(methylsulfonamid-methyl)phenyl)propanamide] |  | IC50 ([2]; read-out: IC50 (human being) [nM], 45° C.): 546 nM
6 | O=Cc1ccc(NC(=O)NCc2cc(C(F)(F)F)nn2-c2cccc(Cl)c2)cc1F [Example E61, 1-((1-(3-chlorophenyl)-3-(trifluoromethyl)-1H-pyrazol-5-yl)methyl)-3-(3-fluoro-4-formylphenyl)urea] | 23 nM | 
7 | N-(3-Chlorophenyl)-4-[1-[[2-(3-chlorophenyl)-5-(trifluoromethyl)-2H-pyrazol-3-yl]-methyl-carbamoyl]-ethyl]-benzamide [Example E32] | 48 nM | 
8 | N-(4-Chlorophenyl)-4-[1-[[2-(3-chlorophenyl)-5-(trifluoromethyl)-2H-pyrazol-3-yl]-methyl-carbamoyl]-ethyl]-2-fluoro-benzamide [Example E46] | 2 nM | 
9 | N-(4-Chlorophenyl)-4-[1-[[2-(3-chlorophenyl)-5-(trifluoromethyl)-2H-pyrazol-3-yl]-methyl-carbamoyl]-ethyl]-benzamide [Example E33] | 6 nM | 
10 | N-[[2-(3-Chlorophenyl)-5-cyclopropyl-2H-pyrazol-3-yl]-methyl]-2-[3-fluoro-4-(methanesulfonamido-methyl)-phenyl]-propionamide [Example B4] | 61 nM | 
11 | N-[[4-[[[5-tert-Butyl-2-(3-chlorophenyl)-2H-pyrazol-3-yl]-methyl-carbamoyl]amino]-2-fluoro-phenyl]-methyl]-acetamide [Example B34] | 15 nM | 
